# Literature values in US6845777B2, “Composition to reduce or quit smoking addiction” (priority 2001, dated 2005).
# Experiments:
# [1] = average adult
smiles,measurement,setting,value
CN1CCCC1c1cccnc1 (centres unmarked) [Nicotine],lethal unit dose,[1],about 60 mg
same,nicotine from the intestine that reaches the bloodstream in a not metabolized form,in vivo,about 30%
same,peak levels in the arteries,in vivo,approximately 40 micro-grams per milliliter of blood
same,plasma half-life,in vivo,30 min and 120 min
same,nicotine inhaled from a cigarette that is absorbed into the bloodstream,inhalation of tobacco smoke,≤ 90%
